The subject of one assay is A. flavus ATCC 9170. The experiment in a line: Microdilution MIC/MMC. It is filed as cell-based, Aspergillus flavus. The settings on record: A. flavus ATCC 9170, reference antibiotics/antimycotic; for MIC: Aspergillus flavus, ATCC9170, read-out: MIC. How it is done: (§1) The antimicrobial activity was evaluated against 15 microorganisms. This included 11 bacterial strains: four standard strains (Staphylococcus aureus ATCC 25923, Bacillus subtilis ATCC 6633, Bacillus pumilus NCTC 8241, and Escherichia coli ATCC 25922) and six clinical or environmental isolates (Staphylococcus aureus, Escherichia coli, Bacillus cereus, Proteus mirabilis, Salmonella enterica, and Klebsiella pneumoniae). One probiotic strain, Bifidobacterium animalis subsp. lactis was tested. In addition, four fungal strains, Candida albicans ATCC 10231, Trichoderma viride ATCC 13233, Aspergillus flavus ATCC 9170, and Fusarium solani ATCC 11712 were tested. The bacterial strains were kept in glycerol stock at −80 °C and the fungal strains in paraffin oil stock at 4 °C.
(§2) Bacterial and yeast suspensions were prepared using the direct colony method, as previously described by Andrews. The turbidity of the initial suspensions was adjusted to match the 0.5 McFarland standard using a densitometer (Biosan, Riga, Latvia), corresponding to approximately 10^8 colony-forming units (CFU)/mL for bacterial cells and 10^6 CFU/mL for yeast cells. Subsequently, 1:100 dilutions of the initial suspensions were prepared in sterile 0.85% saline. Fungal spore suspensions were obtained by gently harvesting spores from agar slopes containing mature mycelial growth. The collected spore suspensions were then diluted 1:1000 in sterile 0.85% saline prior to use.
(§3) Antimicrobial activity was evaluated by determining the minimum inhibitory concentration (MIC) and minimum microbicidal concentration (MMC) using the microdilution plate method with resazurin as an indicator [28]. In the 96-well plates, 100 μL of Mueller–Hinton broth (Torlak, Belgrade, Serbia) for bacterial testing and Sabouraud broth (Torlak, Belgrade, Serbia) for fungal testing were dispensed into each well. The compounds under investigation were initially dissolved in a 10% dimethyl sulfoxide (DMSO) solution, followed by dilution in sterile distilled water, resulting in a working compound solution containing 1% DMSO. A 100 μL aliquot of the stock solution of the tested compound was added to the first row, and twofold serial dilutions were then carried out using a multichannel pipette. The resulting concentration range was from 5 to 0.039 mg/mL. The inoculated microtiter plates were incubated at 37 °C for 24 h for bacteria, at 28 °C for 48 h for yeasts, and at 28 °C for 72 h for molds.
(§4) Each test also included growth control and sterility control. All tests were conducted in duplicate. MIC was defined as the lowest concentration of tested compounds that prevented resazurin color change from blue to pink. For molds, MIC values of the tested compound were determined as the lowest concentration that inhibited visible mycelia growth. MMC was determined by inoculation of the nutrient agar medium by plating […] of samples from wells, where no indicator color change was recorded. At the end of the incubation period, the lowest concentration with no growth (no colony) was defined as MMC.
(§5) Doxycycline, ampicillin and amphotericin B (- Sigma-Aldrich, St. Louis, MO, USA) and ketoconazole (Hemofarm A.D., Vršac, Serbia) were dissolved in a nutrient liquid medium. Doxycycline is a broad-spectrum antibiotic effective against both aerobic and anaerobic Gram-positive and Gram-negative bacteria. Ampicillin, a beta-lactam antibiotic, primarily targets Gram-positive bacteria but also some Gram-negative strains. Amphotericin B is an antifungal drug often used for serious systemic fungal infections and is one of the effective treatments for fungal infections caused by Aspergillus sp. Ketoconazole is an antifungal agent used to inhibit the growth of Candida species.
Background: Broth dilution looks for growth in wells or tubes with falling amounts of substance.

A further assay deals with C. albicans ATCC 10231. The experiment in a line: Microdilution MIC/MMC with resazurin. It is filed as cell-based, Candida albicans. Conditions: C. albicans ATCC 10231, reference antibiotics/antimycotic; for MIC: Candida albicans, ATCC10231, read-out: MIC. How it is done: as §1, §2, §3, §4, §5
The test system of the next assay is T. viride ATCC 13233. As to the kind of experiment: Microdilution MIC/MMC. The assay is classed as cell-based, Trichoderma viride. The settings on record: T. viride ATCC 13233, reference antibiotics/antimycotic; for MIC: Trichoderma viride, ATCC13233, read-out: MIC. How it is done:
as §1, §2, §3, §4, §5

Another assay deals with B. pumilus NCTC 8241. The experiment in a line: Microdilution MIC/MMC with resazurin. It is filed as cell-based, Bacillus pumilus. The settings on record: B. pumilus NCTC 8241, reference antibiotics/antimycotic. How it is done:
as §1, §2, §3, §4, §5

The next assay deals with K. pneumoniae. The experiment in a line: Microdilution MIC/MMC with resazurin. The assay is classed as cell-based, Klebsiella pneumoniae. Conditions: K. pneumoniae, reference antibiotics/antimycotic; for MIC: Klebsiella pneumoniae, read-out: MIC. How it is done: as §1, §2, §3, §4, §5
The test system of the next assay is S. aureus ATCC 25923. As to the kind of experiment: Microdilution MIC/MMC with resazurin. The settings on record: S. aureus ATCC 25923, reference antibiotics/antimycotic; for MIC: Staphylococcus aureus, ATCC25923, read-out: MIC. It is filed as cell-based, Staphylococcus aureus. How it is done: as §1, §2, §3, §4, §5
In another assay the test system is S. aureus. The experiment in a line: Microdilution MIC/MMC with resazurin. It is filed as cell-based, Staphylococcus aureus. Conditions: S. aureus isolate, reference antibiotics/antimycotic; for MIC: Staphylococcus aureus, read-out: MIC. How it is done: as §1, §2, §3, §4, §5
Another assay concerns E. coli ATCC 25922. The experiment in a line: Microdilution MIC/MMC with resazurin. The assay is classed as cell-based, Escherichia coli. The settings on record: E. coli ATCC 25922, reference antibiotics/antimycotic; for MIC: Escherichia coli, ATCC25922, read-out: MIC. How it is done:
as §1, §2, §3, §4, §5

The subject of another assay is E. coli. The experiment in a line: Microdilution MIC/MMC with resazurin. It is filed as cell-based, Escherichia coli. Conditions: E. coli isolate, reference antibiotics/antimycotic; for MIC: Escherichia coli, read-out: MIC. How it is done: as §1, §2, §3, §4, §5
The next assay concerns S. enterica. The experiment in a line: Microdilution MIC/MMC with resazurin. It is filed as cell-based, Salmonella enterica. Conditions: reference antibiotics/antimycotic; for MIC: Salmonella enterica. How it is done: as §1, §2, §3, §4, §5
A further assay concerns B. subtilis ATCC 6633. The experiment in a line: Microdilution MIC/MMC with resazurin. It is filed as cell-based, Bacillus subtilis. Conditions: B. subtilis ATCC 6633, reference antibiotics/antimycotic; for MIC: Bacillus subtilis, ATCC6633, read-out: MIC. How it is done:
as §1, §2, §3, §4, §5

The test system of assay [1] is B. animalis subsp. lactis. The experiment in a line: Microdilution MIC/MMC with resazurin. It is filed as cell-based, Bifidobacterium animalis subsp. lactis. The settings on record: B. animalis subsp. lactis, reference antibiotics/antimycotic; for MIC: Bifidobacterium animalis, read-out: MIC. How it is done:
as §1, §2, §3, §4, §5

Another assay concerns B. cereus. As to the kind of experiment: Microdilution MIC/MMC with resazurin. It is filed as cell-based, Bacillus cereus. Conditions: B. cereus, reference antibiotics/antimycotic; for MIC: Bacillus cereus, read-out: MIC. How it is done:
as §1, §2, §3, §4, §5

A further assay relates to P. mirabilis. The experiment in a line: Microdilution MIC/MMC with resazurin. Conditions: P. mirabilis, reference antibiotics/antimycotic; for MIC: Proteus mirabilis, read-out: MIC. The assay is classed as cell-based, Proteus mirabilis. How it is done:
as §1, §2, §3, §4, §5

A further assay has as its system F. solani ATCC 11712. As to the kind of experiment: Microdilution MIC/MMC. It is filed as cell-based, Fusarium solani. Conditions: F. solani ATCC 11712, reference antibiotics/antimycotic. How it is done: as §1, §2, §3, §4, §5
A short description of assay [2]: ABTS radical scavenging assay. The settings on record: mean ± SD. How it is done:
The ABTS radical cation solution was prepared following the previously described protocol. Different concentrations of the analyzed samples were prepared in DMSO. The test samples were prepared following the specified procedure: 20 µL of sample was combined with 980 µL of methanol, followed by the addition of 1000 µL of ABTS solution. Absorbance was measured at 734 nm. All measurements were performed in triplicate.

SMILES strings stand for the structures. Values after ≈ are worked out from the molar mass of the structure shown.

As usually defined, the MIC is the lowest concentration that inhibits growth of the organism. `C[C@@H]1[C@H](O)[C@@H](C)/C=C/C=C/C=C/C=C/C=C/C=C/C=C/[C@H](O[C@@H]2O[C@H](C)[C@@H](O)[C@H](N)[C@@H]2O)C[C@@H]2O[C@](O)(C[C@@H](O)C[C@@H](O)[C@H](O)CC[C@@H](O)C[C@@H](O)CC(=O)O[C@H]1C)C[C@H](O)[C@H]2C(=O)O` [Amphotericin B, reference compound]: the MMC in the assay with A. flavus ATCC 9170 is 0.78 µg/mL; in the assay with C. albicans ATCC 10231, under 0.098 µg/mL; in the assay on T. viride ATCC 13233 it was 1.56 µg/mL. The MIC is 0.39 µg/mL (≈ 0.422 µM) in the assay on A. flavus ATCC 9170, under 0.098 µg/mL in the assay with C. albicans ATCC 10231 and 0.78 µg/mL (≈ 0.844 µM) in the assay with T. viride ATCC 13233.
Turning to `CC1(C)S[C@@H]2[C@H](NC(=O)[C@H](N)c3ccccc3)C(=O)N2[C@H]1C(=O)O` [Ampicillin, reference compound], the MMC is 12 µg/mL in the assay on B. pumilus NCTC 8241; over 128 µg/mL with K. pneumoniae; 0.75 µg/mL in the assay on S. aureus ATCC 25923; under 0.06 µg/mL in the assay on S. aureus; 0.5 µg/mL in the assay with E. coli ATCC 25922; 2.1 µg/mL with E. coli. Moreover, the MMC with S. enterica is listed as 1 µg/mL; in the assay on B. subtilis ATCC 6633, 4 µg/mL; in assay [1], 0.12 µg/mL; in the assay with B. cereus, 6 µg/mL; in the assay on P. mirabilis, over 128 µg/mL. Also, the MIC with B. pumilus NCTC 8241 (Bacillus pumilus, NCTC8241, read-out: MIC) was 8 µg/mL (≈ 22.9 µM); with K. pneumoniae, over 128 µg/mL; in the assay on S. aureus ATCC 25923 it was 0.25 µg/mL (≈ 0.715 µM); in the assay on S. aureus, under 0.06 µg/mL; in the assay on E. coli ATCC 25922, 0.37 µg/mL (≈ 1.06 µM); in the assay on E. coli, 1.2 µg/mL (≈ 3.43 µM). The MIC is 1 µg/mL (≈ 2.86 µM) in the assay with S. enterica; 3 µg/mL (≈ 8.59 µM) in the assay on B. subtilis ATCC 6633; under 0.06 µg/mL in assay [1]; 4 µg/mL (≈ 11.4 µM) in the assay on B. cereus; over 128 µg/mL in the assay on P. mirabilis.
Regarding `C[C@H]1c2cccc(O)c2C(=O)C2=C(O)[C@]3(O)C(=O)C(C(N)=O)=C(O)[C@@H](N(C)C)[C@@H]3[C@@H](O)[C@@H]21` [Doxycycline, reference compound], the MMC with K. pneumoniae worked out at 32 µg/mL; in the assay with S. aureus ATCC 25923, 3.75 µg/mL; in the assay on S. aureus it was 7.81 µg/mL; in the assay with E. coli ATCC 25922, 31.25 µg/mL; in the assay with E. coli, 62.5 µg/mL; in the assay on B. subtilis ATCC 6633, 31.25 µg/mL. Besides, the MMC in assay [1] is recorded as 8 µg/mL; in the assay with B. cereus, 7.81 µg/mL; in the assay on P. mirabilis, 62.5 µg/mL. The MIC stood at 2 µg/mL (≈ 4.5 µM) with K. pneumoniae; 0.224 µg/mL (≈ 0.504 µM) with S. aureus ATCC 25923; 0.45 µg/mL (≈ 1.01 µM) with S. aureus; 15.6 µg/mL (≈ 35.2 µM) in the assay with E. coli ATCC 25922; 15.6 µg/mL (≈ 35.2 µM) in the assay on E. coli; 15.6 µg/mL (≈ 35.2 µM) against S. enterica. Further, the MIC with B. subtilis ATCC 6633 was found to be 1.95 µg/mL (≈ 4.39 µM); in [1] it was 4 µg/mL (≈ 9 µM); in the assay with B. cereus, 0.977 µg/mL (≈ 2.2 µM); with P. mirabilis, 15.6 µg/mL (≈ 35.2 µM).
For `CC(=O)N1CCN(c2ccc(OCC3COC(Cn4ccnc4)(c4ccc(Cl)cc4Cl)O3)cc2)CC1` (stereo not shown) [Ketoconazole, reference compound], the MMC worked out at 1.96 µg/mL in the assay on A. flavus ATCC 9170, 0.156 µg/mL in the assay on F. solani ATCC 11712, 1.96 µg/mL in the assay on C. albicans ATCC 10231 and 125 µg/mL with T. viride ATCC 13233. For the same compound, the minimum inhibitory concentration (MIC) is under 0.49 µg/mL in the assay on A. flavus ATCC 9170; 0.08 µg/mL (≈ 0.151 µM) with F. solani ATCC 11712 (Fusarium solani, ATCC11712, read-out: MIC); 1.96 µg/mL (≈ 3.69 µM) in the assay on C. albicans ATCC 10231; 62.5 µg/mL (≈ 118 µM) in the assay with T. viride ATCC 13233.
As to `Cc1c(C)c2c(c(C)c1O)CCC(C)(C(=O)O)O2` (stereo not shown) [Trolox, reference compound], the “ABTS Scavenging Ability” value in [2] (25 µM) is given as 97.5 ± 0.2%; in [2] (50 µM), 99.3 ± 0.1%; in [2] (100 µM), 99.5 ± 0.3%.

Values taken from paper PMC12693701, “Glucosinolate-Derived Metabolites from Barbarea vulgaris (Brassicaceae): Evaluation of Antimicrobial, Antioxidant, and Anti-Inflammatory Potentials” (Molecules, 2025).
